Experiment [1] deals with AKT phosphorylation, SOX2, FGFR1/2 and CSC-associated molecules in NU-DUL-1-RCHO cells. The experiment is described as follows: Immunoblot analysis. In kind it is cell-based, human.
For a further experiment, the system named is NU-DUL-1-RCHO-Luc cells. In words: Transplantation model, bioluminescence tumor growth and survival. Format: in vivo. Conditions: SCID mice bearing NU-DUL-1-RCHO-Luc cells. The source says:
(§1) Construction of a transplantation model: we transduced LY8-RCHO cells and NU-DUL-1-RCHO cells with lentiviruses overexpressing the firefly luciferase gene to generate stable cells expressing firefly luciferase, referred to as LY8-RCHO-Luc cells and NU-DUL-1-RCHO-Luc cells, respectively. 8-week-old female SCID mice were purchased from SLAC (Shanghai laboratory animal center). The LY8-RCHO-Luc cells and NU-DUL-1-RCHO-Luc cells were resuspended in PBS prior to intraperitoneal injection of 1.5×10^7 cells per mouse. After intraperitoneal injection of the LY8-RCHO-Luc cells, mice were randomized into 6 groups (7 mice in every group) and given saline, R-CHOP, duvelisib, abemaciclib, R-CHOP+duvelisib, and R-CHOP+abemaciclib, respectively. Mice inoculated with the NU-DUL-1-RCHO-Luc cells were randomly divided into 6 groups (7 mice in every group), and were given saline, R-CHOP, duvelisib, AZD4547, R-CHOP+duvelisib, and R-CHOP+AZD4547, respectively. The drug dosing method based on one course of clinical use is shown in Table 1; the R-CHOP regimen was clinically used to treat DLBCL, while duvelisib, abemaciclib, and AZD4547 were tested in clinical trials (associated NCT numbers are NCT02576275, NCT01739309, and […], respectively). Tumor growth was monitored by bioluminescence at day 50 and day 90 after inoculation. For in vivo luminescence imaging, D-luciferin (Promega, Madison, Wis.) was intraperitoneally injected into mice (150 mg/kg). After 10 minutes, the mice were anesthetized by intraperitoneal injection of pentobarbital (50 mg/kg) and then their bioluminescence intensity was examined by using an In Vivo MS FX PRO system (Bruker Corporation, Billerica, Mass.). Luminescence images were captured with an exposure time of 30 seconds and the signal intensity of the tumor was measured by using Bruker MI software. The survival time of each mouse was recorded. Surviving mice were euthanized and dissected 120 days after inoculation and no intraperitoneal tumors were found. Tumor tissue was collected from moribund mice and fixed with 4% formalin. All animal experiments were performed in strict accordance with the experiment protocol approved by the animal ethics committee of Shanghai school of medicine of Fudan university.

The next experiment concerns LY8-RCHO-Luc cells. The experiment is described as above. Format: in vivo. Conditions: SCID mice bearing LY8-RCHO-Luc cells; for tumor growth (total photon flux): dosing per Table 1.
Source text: as §1

Experiment [2] concerns LY8-RCHO cells. In words: Aldefluor analysis (ALDH1+ cells). Format: cell-based, human. The method, then: ALDH1 is a selectable marker for a variety of normal and cancer stem cells, including hematopoietic stem cells. Therefore, we assessed the number of cancer stem cells in hematopoietic malignancies by detecting ALDH1 positive cells. As previously described, we used an ALDEFLUOR™ kit (StemCell Technologies, Vancouver, BC, CA) to detect populations with high ALDH1 activity. Briefly, 1×10^6 cells were suspended in 1 mL of assay buffer containing 1 μM of BAAA, a substrate of […]. Suspended cells were then equally divided into two samples, one as a negative control and the other as a test sample. To form the negative control, […] of DEAB, a specific ALDH inhibitor, was added to one equally-divided sample. Cells were then incubated at 37° C. for 30 minutes prior to flow cytometry analysis.

In experiment [3] the test system is LY8-RCHO cells. In words: EdU cell proliferation assay. In kind it is cell-based, human. The following applies: 1 μM. The method, then:
(§2) RCHO-resistant DLBCL cells were pretreated with duvelisib, abemaciclib, or AZD4547 at a concentration of 1 μM for 48 or 120 hours prior to EdU assay. For 120 hours of the study, the medium was replaced with a fresh medium containing 1 μM of inhibitor at 48 hours. EdU cell proliferation assay was performed by using a cell-light EdU Apollo643 in vitro flow cytometry kit (RiboBio Inc., Guangzhou, China) according to its instructions. Next, we assayed EdU staining positive cells on a Cytomics FC500 MPL flow cytometer (Beckman Coulter, Brea, Calif.).

Another experiment has as its system NU-DUL-1-RCHO cells. The experiment is described as follows: EdU cell proliferation assay. In kind it is cell-based, human. The following applies: 1 μM. The method, then: as §2
Experiment [4] has as its system CD20 and mCRPs (CD46, CD55, CD59) in RCHO-resistant NU-DUL-1 cells. The experiment is described as follows: FACS analysis of membrane expression of CD46, CD55, CD59 and CD20. Format: cell-based, human. As for the experimental part:
(§3) After being washed with PBS, cells were incubated with fluorescein-conjugated antibody for 30 minutes, followed by washing and resuspension of cells in PBS. Flow cytometry analysis was performed on a cytomics FC500 MPL instrument (Beckman Coulter, Inc., Brea, Calif.) and FlowJo software (Ashland, Inc., OR) was used for analysis. Cells were then sorted according to their relative fluorescence intensity by using a MoFlo XDP sorter (Beckman Coulter Inc., Brea, Calif.).

The subject of experiment [5] is CD20 and mCRPs (CD46, CD55, CD59) in RCHO-resistant LY8 cells. The experiment is described as above. Format: cell-based, human. As for the experimental part: as §3
[6] abbreviates: inhibitor combined with R-CHOP, experiment ended at day 120.
The mark [7] stands for this setting: regimen or inhibitor used alone, dosing per Table 1.

Entries after “also recorded” stand apart in the source; their conditions may differ.

Consider `C[C@H](Nc1ncnc2[nH]cnc12)c1cc2cccc(Cl)c2c(=O)n1-c1ccccc1` [duvelisib], for which the “AKT phosphorylation and expression of SOX2 and FGFR1/2” value in experiment [1] is “reduces expression of SOX2 and FGFR1/2 by inhibiting AKT phosphorylation; also recorded: prevented phosphorylation of AKT and induced degradation of SOX2”. In addition, in experiment [1], the “levels of CSC-associated molecules (OCT4, NANOG, KLF4, c-MYC, CD34, CD133)” value is reported as “significantly reduced levels of CSC-associated molecules in the RCHO-resistant cells”. The “tumor growth (total photon flux)” value with NU-DUL-1-RCHO-Luc cells (inhibitor combined with R-CHOP, dosing per Table 1) is “completely inhibit tumor growth”; with NU-DUL-1-RCHO-Luc cells (setting [7]) it was “had no efficacy on tumor growth and the survival time”; in the experiment on LY8-RCHO-Luc cells (inhibitor combined with R-CHOP), “significantly inhibited tumor growth; also recorded: completely inhibited tumor development”; in the experiment with LY8-RCHO-Luc cells (regimen or inhibitor used alone, vs saline, day 50 and 90), “neither duvelisib nor abemaciclib alone inhibited tumor growth or prolonged the survival rate; also recorded: accelerated tumor growth compared with normal saline, although this difference was not statistically significant”. Moreover, the survival time entry in the experiment on NU-DUL-1-RCHO-Luc cells (setting [6]) is “prolong the survival time to the end of the experiment at day 120”; with NU-DUL-1-RCHO-Luc cells (setting [7]), “had no efficacy on tumor growth and the survival time”. The survival entry in the experiment on LY8-RCHO-Luc cells (setting [6]) is “prolonged the survival rate compared with R-CHOP or an inhibitor alone; also recorded: all treated mice survived until the end of the experiment at day 120”. Further, the “proportion of ALDH1+ cells (CSCs)” value in the experiment on LY8-RCHO cells [2] was “significantly reduced ALDH1+ subpopulations in LY8-RCHO and NU-DUL-1-RCHO cells”. For the same compound, the “cell proliferation (EdU incorporation)” value in the experiment with LY8-RCHO cells [3] (48 hours) is “strongly prevented proliferation of LY8-RCHO and NU-DUL-1-RCHO cells”; in the experiment with LY8-RCHO cells [3] (120 hours) it was “significantly promoted proliferation of cells at 120 hours”; in the experiment with NU-DUL-1-RCHO cells (48 hours), “strongly prevented proliferation of LY8-RCHO and NU-DUL-1-RCHO cells”; in the experiment on NU-DUL-1-RCHO cells (120 hours) it was “significantly promoted proliferation of cells at 120 hours”. Moreover, the “membrane expression of CD20” value in experiment [4] and in experiment [5] was “significantly reduced” in each case. Moreover, the “membrane expression of the other three mCRPs (CD46, CD55, CD59)” value in experiment [4] and in experiment [5] was “the other three mCRPs did not” each time.

Values taken from patent US20220008425A1, “Pharmaceutical Composition for Treating B-Cell Lymphoma” (FUNDAN UNIVERSITY SHANGHAI CANER CENTER, priority 2018, published 2022).
